According to BindingDB's records for doi:10.1016/j.bmc.2004.10.008 (Mitsubishi Pharma, 2005):

Tests used:
Assay in all cases: [32P] S1P Binding Assay
Conditions in all cases: pH 7.5; 4 °C
[1] = molecular target: T1, Sphingosine 1-phosphate receptor 4 (Homo sapiens, UniProt O95977)
T1 sequence (O95977 whole entry): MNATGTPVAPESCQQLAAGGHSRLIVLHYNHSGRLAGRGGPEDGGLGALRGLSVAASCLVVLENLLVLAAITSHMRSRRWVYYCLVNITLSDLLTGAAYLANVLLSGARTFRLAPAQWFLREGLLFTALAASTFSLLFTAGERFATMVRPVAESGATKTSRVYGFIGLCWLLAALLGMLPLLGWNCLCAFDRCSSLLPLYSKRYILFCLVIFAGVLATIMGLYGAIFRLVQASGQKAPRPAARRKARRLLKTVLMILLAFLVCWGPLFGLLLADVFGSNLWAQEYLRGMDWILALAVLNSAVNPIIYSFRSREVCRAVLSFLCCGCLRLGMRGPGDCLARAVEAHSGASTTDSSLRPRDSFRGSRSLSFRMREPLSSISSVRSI

[2] = molecular target: Sphingosine 1-phosphate receptor 3 (Homo sapiens, UniProt Q99500)
[3] = molecular target: Sphingosine 1-phosphate receptor 1 (Homo sapiens, UniProt P21453)
Chain of Sphingosine 1-phosphate receptor 1 (P21453 whole entry): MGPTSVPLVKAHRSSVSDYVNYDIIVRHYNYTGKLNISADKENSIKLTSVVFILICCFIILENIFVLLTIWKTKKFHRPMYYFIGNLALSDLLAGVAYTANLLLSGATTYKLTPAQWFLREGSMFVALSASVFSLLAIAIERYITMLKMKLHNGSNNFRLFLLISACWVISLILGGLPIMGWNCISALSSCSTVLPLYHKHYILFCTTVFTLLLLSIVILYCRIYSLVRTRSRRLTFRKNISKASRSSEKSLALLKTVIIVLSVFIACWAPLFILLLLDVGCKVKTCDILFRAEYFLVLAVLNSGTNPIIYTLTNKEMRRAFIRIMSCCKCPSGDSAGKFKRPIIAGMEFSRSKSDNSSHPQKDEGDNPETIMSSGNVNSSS

Chain of Sphingosine 1-phosphate receptor 3 (Q99500 whole entry): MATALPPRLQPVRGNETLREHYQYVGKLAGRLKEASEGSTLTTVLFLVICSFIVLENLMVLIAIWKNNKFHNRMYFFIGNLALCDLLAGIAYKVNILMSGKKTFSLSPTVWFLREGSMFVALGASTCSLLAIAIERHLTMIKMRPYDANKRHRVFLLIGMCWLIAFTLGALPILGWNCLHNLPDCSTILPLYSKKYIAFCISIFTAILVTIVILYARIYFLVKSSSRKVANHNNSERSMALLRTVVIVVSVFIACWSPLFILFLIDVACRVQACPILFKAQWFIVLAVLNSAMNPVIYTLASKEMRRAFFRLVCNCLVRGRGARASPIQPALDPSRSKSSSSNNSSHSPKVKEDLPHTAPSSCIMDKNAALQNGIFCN

SMILES | Ki [1] | Ki [2] | Ki [3]
CCCCCCCCc1ccc(CC[C@](N)(CO)COP(=O)(O)O)cc1 | 23 nM |  | 
CCCCCCCCCCCCC/C=C\C(O)C(N)COP(=O)(O)O (stereo unspecified) [{[(4Z)-2-amino-3-hydroxyoctadec-4-en-1-yl]oxy}phosphonic acid] | 2.7 nM | 5.4 nM | 1.2 nM
CCCCCCCCc1ccc(CC[C@@](N)(CO)COP(=O)(O)O)cc1 | 105 nM |  | 
CCCCCCCCc1ccc(CCC(N)(CO)COP(=O)(O)O)cc1 (stereo unspecified) [{2-amino-3-hydroxy-2-[2-(4-octylphenyl)ethyl]propoxy}phosphonic acid] | 37 nM |  | 
